{
  "source": "patent US20210212996A1",
  "about": "“METHODS OF TREATING NEURODEGENERATIVE DISEASES USING INDANE ACETIC ACID DERIVATIVES WHICH PENETRATE THE BLOOD BRAIN BARRIER” (DARA BioSciences, Inc., priority 2009, published 2021)",
  "key": {"human PPARδ": {"target": "T1, human PPARδ (Homo sapiens, UniProt Q03181)", "T1 construct": "expressed in transfected cells; host or cells: CV-1 cells (transient transfection)", "T1 sequence (Q03181 1-441)": "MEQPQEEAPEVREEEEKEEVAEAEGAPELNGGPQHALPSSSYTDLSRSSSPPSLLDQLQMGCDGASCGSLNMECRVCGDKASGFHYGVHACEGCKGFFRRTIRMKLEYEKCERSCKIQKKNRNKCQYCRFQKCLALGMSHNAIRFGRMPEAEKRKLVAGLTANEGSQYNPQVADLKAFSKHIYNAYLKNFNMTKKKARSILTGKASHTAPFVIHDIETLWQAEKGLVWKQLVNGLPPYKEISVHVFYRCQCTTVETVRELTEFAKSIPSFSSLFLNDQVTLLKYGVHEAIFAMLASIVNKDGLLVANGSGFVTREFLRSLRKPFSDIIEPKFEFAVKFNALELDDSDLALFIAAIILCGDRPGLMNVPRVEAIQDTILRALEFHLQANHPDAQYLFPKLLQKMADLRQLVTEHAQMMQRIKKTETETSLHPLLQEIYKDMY", "assay": "Human PPAR activation in transient transfection study, transfected CV-1 cells (delta subtype)", "type": "cell-based"}, "human Caco-2": {"system": "human Caco-2", "assay": "Caco-2 permeability with and without P-gp inhibitor verapamil", "details": "Caco-2 with/without verapamil"}, "[1]": {"assay": "Caco-2 permeability with and without P-gp inhibitor verapamil", "details": "human, Caco-2"}, "human PPARγ": {"target": "T2, human PPARγ (Homo sapiens, UniProt P37231)", "T2 construct": "expressed in transfected cells; host or cells: CV-1 cells (transient transfection)", "T2 sequence (P37231 1-505)": "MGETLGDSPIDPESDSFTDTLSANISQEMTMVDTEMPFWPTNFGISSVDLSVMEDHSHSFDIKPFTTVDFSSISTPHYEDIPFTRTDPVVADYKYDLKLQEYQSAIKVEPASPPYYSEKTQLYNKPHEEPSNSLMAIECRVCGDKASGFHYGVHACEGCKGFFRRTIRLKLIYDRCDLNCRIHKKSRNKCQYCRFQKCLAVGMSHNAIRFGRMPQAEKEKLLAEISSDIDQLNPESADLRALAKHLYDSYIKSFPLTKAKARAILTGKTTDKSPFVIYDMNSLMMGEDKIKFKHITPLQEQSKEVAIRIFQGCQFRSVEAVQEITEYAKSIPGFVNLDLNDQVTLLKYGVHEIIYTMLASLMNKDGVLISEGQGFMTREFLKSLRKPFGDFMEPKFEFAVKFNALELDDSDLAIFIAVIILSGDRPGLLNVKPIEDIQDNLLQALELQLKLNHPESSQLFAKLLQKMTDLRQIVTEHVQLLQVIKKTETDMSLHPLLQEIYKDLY", "assay": "Human PPAR activation in transient transfection study, transfected CV-1 cells (gamma subtype)", "type": "cell-based", "text": "(§1) The table summarize the results of studies performed in transfected CV-1 cells with three different lots of Compound of Example 11. […]."}, "[2]": {"system": "Relative Cerebral Metabolic Rate for glucose", "assay": "FDG-PET clinical study, two week treatment", "type": "in vivo, human", "text": "The majority were non-Hispanic and of white origin."}, "[3]": {"assay": "Rat brain penetrance pharmacokinetics, brain to plasma ratio after oral dosing", "type": "in vivo, male Sprague-Dawley rats", "details": "for concentration at 7 h: time point 7.0, individual rats", "text": "Blood brain penetration studies can be carried out as described in recent publications and as is known by those skilled in the art. (See: Chang, K. L., et al. Influence of drug transporters and stereoselectivity on the brain penetration of pioglitazone as a potential medicine against Alzheimer's disease. Science Reports 2014, 5, 9000). In brief, A good measure of whether a small molecule penetrates the BBB and is not rapidly transported out, is the brain to plasma ratio of the drug. This is measured in pre-clinical animal models by determining plasma concentration vs time curves as in a standard pharmacokinetic study, and in addition harvesting brains and determining whole brain concentrations over time. The brain to plasma concentration ratio can them be determined at any time point, such as the […], or for the entire time curve (AUC, area under the curve). Clinically, FDG-PET can be used as a measure of the pharmacological effect of T3D-959, and an indirect measure of brain levels of drug.\nFor compounds of the present invention to be effective in treating neurotoxicity or neurodegeneration, it must have an ability to cross the BBB and penetrate the brain. […] The plasma exposure as measured by AUClast was 9569±1190 hr*ng/mL."}, "human PPARα": {"target": "T3, human PPARα (Homo sapiens, UniProt Q07869)", "T3 construct": "expressed in transfected cells; host or cells: CV-1 cells (transient transfection)", "T3 sequence (Q07869 1-468)": "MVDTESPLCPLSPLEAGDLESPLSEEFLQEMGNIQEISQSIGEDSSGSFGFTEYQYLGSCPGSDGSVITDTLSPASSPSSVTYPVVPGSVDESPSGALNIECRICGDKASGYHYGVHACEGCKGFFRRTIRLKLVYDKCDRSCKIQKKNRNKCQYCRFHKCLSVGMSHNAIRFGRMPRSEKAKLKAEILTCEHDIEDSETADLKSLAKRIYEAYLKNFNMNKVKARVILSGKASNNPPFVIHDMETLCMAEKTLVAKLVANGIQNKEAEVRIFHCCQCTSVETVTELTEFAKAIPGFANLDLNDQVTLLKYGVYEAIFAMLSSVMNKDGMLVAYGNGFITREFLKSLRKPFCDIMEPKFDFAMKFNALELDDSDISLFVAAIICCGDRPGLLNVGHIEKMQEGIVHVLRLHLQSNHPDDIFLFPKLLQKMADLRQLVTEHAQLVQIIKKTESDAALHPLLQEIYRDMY", "assay": "Human PPAR activation in transient transfection study, transfected CV-1 cells (alpha subtype)", "type": "cell-based", "text": "as §1"}},
  "note": "Read-outs that look alike come from different tables or passages of the source.",
  "data": [
    {"smiles": "CCc1oc(-c2ccc(OC)cc2)nc1CCOc1ccc2c(c1)CC[C@H]2CC(=O)[O-].[Na+]", "note": "[Example 11, Sodium (S)-2-(5-(2-(5-ethyl-2-(4-methoxyphenyl)oxazol-4-yl)ethoxy)-2,3-dihydro-1H-inden-1-yl)acetate]", "values": [
      {"measurement": "EC50", "setting": "human PPARδ; Lot A, Non GMP, read-out: EC50 PPARδ", "result": 15, "unit": "nM"},
      {"measurement": "EC50", "setting": "human PPARδ; Lot B, GLP Nonclinical Studies, read-out: EC50 PPARδ", "result": 27, "unit": "nM"},
      {"measurement": "EC50", "setting": "human PPARδ; Lot C, cGMP material, read-out: EC50 PPARδ", "result": 16, "unit": "nM"},
      {"measurement": "EC50", "setting": "human PPARδ; average of three lots, read-out: Average EC50 PPARδ", "result": 19, "unit": "nM"},
      {"measurement": "P-gp substrate", "setting": "human Caco-2", "result": "not a substrate for P-gp"},
      {"measurement": "Papp", "setting": "[1]", "result": 114, "unit": "×10⁻⁶ cm/s"},
      {"measurement": "EC50", "setting": "human PPARγ; Lot A, Non GMP, read-out: EC50 PPARγ", "result": 220, "unit": "nM"},
      {"measurement": "EC50", "setting": "human PPARγ; Lot B, GLP Nonclinical Studies, read-out: EC50 PPARγ", "result": 270, "unit": "nM"},
      {"measurement": "EC50", "setting": "human PPARγ; Lot C, cGMP material, read-out: EC50 PPARγ", "result": 400, "unit": "nM"},
      {"measurement": "EC50", "setting": "human PPARγ; average of three lots, read-out: Average EC50 PPARγ", "result": 297, "unit": "nM"},
      {"measurement": "number of voxels with statistically significant differences from baseline to end of treatment (ROSDs)", "setting": "[2]; 10 mg", "result": 70, "unit": "voxels"},
      {"measurement": "penetration of the Blood Brain Barrier (FDG-PET, voxel-wise analysis)", "setting": "[2]; clinical, 3 to 90 mg", "result": "penetrates the Blood Brain Barrier (BBB) even at the lowest 3 mg"},
      {"measurement": "dose dependence of the effect on FDG-PET outcomes", "setting": "[2]; sROI, anatomical ROI and voxel-wise SPM analyses", "result": "dose-dependent, with larger effects observed at larger doses"},
      {"measurement": "time plasma Cmax reached post dose", "setting": "[3]; 3 mg/kg oral", "result": 5, "unit": "h"},
      {"measurement": "concentration at 7 h", "setting": "[3]; male, Sprague-Dawley, rat, brain, oral, 3 mg/kg, read-out: Brain Tissue Cone.", "result": 130, "unit": "ng/g"},
      {"measurement": "Kp at 3 h", "setting": "[3]; male, Sprague-Dawley, rat, in vivo, 3 mg/kg, time point 3.0, individual rats, read-out: B/P Ratio", "result": 0.19},
      {"measurement": "concentration at 3 h", "setting": "[3]; male, Sprague-Dawley, rat, in vivo, 3 mg/kg, time point 3.0, individual rats, read-out: Brain Tissue Cone.", "result": 274, "unit": "ng/g"},
      {"measurement": "concentration at 3 h", "setting": "[3]; male, Sprague-Dawley, rat, in vivo, 3 mg/kg, time point 3.0, individual rats, read-out: Plasma Conc.", "result": 1430, "unit": "ng/mL"},
      {"measurement": "Kp at 5 h", "setting": "[3]; male, Sprague-Dawley, rat, in vivo, 3 mg/kg, time point 5.0, individual rats, read-out: B/P Ratio", "result": 0.17},
      {"measurement": "concentration at 5 h", "setting": "[3]; male, Sprague-Dawley, rat, in vivo, 3 mg/kg, time point 5.0, individual rats, read-out: Brain Tissue Cone.", "result": 208, "unit": "ng/g"},
      {"measurement": "concentration at 5 h", "setting": "[3]; male, Sprague-Dawley, rat, in vivo, 3 mg/kg, time point 5.0, individual rats, read-out: Plasma Conc.", "result": 1260, "unit": "ng/mL"},
      {"measurement": "concentration at 7 h", "setting": "[3]; male, Sprague-Dawley, rat, in vivo, 3 mg/kg, read-out: Brain Tissue Cone.", "result": 203, "unit": "ng/g"},
      {"measurement": "Kp at 12 h", "setting": "[3]; male, Sprague-Dawley, rat, in vivo, 3 mg/kg, time point 12.0, individual rats, read-out: B/P Ratio", "result": 0.3},
      {"measurement": "concentration at 12 h", "setting": "[3]; male, Sprague-Dawley, rat, in vivo, 3 mg/kg, time point 12.0, individual rats, read-out: Brain Tissue Cone.", "result": 104, "unit": "ng/g"},
      {"measurement": "concentration at 12 h", "setting": "[3]; male, Sprague-Dawley, rat, in vivo, 3 mg/kg, time point 12.0, individual rats, read-out: Plasma Conc.", "result": 345, "unit": "ng/mL"},
      {"measurement": "Kp at 1 h", "setting": "[3]; male, Sprague-Dawley, rat, in vivo, po, 3 mg/kg, 1 hour, 3 mg/kg oral", "result": "0.361 ± 0.142"},
      {"measurement": "Kp at 3 h", "setting": "[3]; male, Sprague-Dawley, rat, in vivo, po, 3 mg/kg, 3 hours, 3 mg/kg oral, read-out: Brain/Plasma ratio", "result": "0.22 ± 0.033"},
      {"measurement": "Kp at 5 h", "setting": "[3]; male, Sprague-Dawley, rat, in vivo, po, 3 mg/kg, 5 hours, 3 mg/kg oral, read-out: Brain/Plasma ratio", "result": "0.171 ± 0.011"},
      {"measurement": "Kp at 7 h", "setting": "[3]; male, Sprague-Dawley, rat, in vivo, po, 3 mg/kg, 7 hours, 3 mg/kg oral", "result": "0.328 ± 0.154"},
      {"measurement": "Kp at 12 h", "setting": "[3]; male, Sprague-Dawley, rat, in vivo, po, 3 mg/kg, 12 hours, 3 mg/kg oral, read-out: Brain/Plasma ratio", "result": "0.35 ± 0.077"},
      {"measurement": "half-life", "setting": "[3]; male, Sprague-Dawley, rat, in vivo, 3 mg/kg oral", "result": 200, "unit": "min"},
      {"measurement": "Cmax", "setting": "[3]; male, Sprague-Dawley, rat, in vivo, 3 mg/kg oral, normal saline", "result": "1550 ± 248", "unit": "ng/mL"},
      {"measurement": "AUC(0-t)", "setting": "[3]; male, Sprague-Dawley, rat, in vivo, 3 mg/kg oral, read-out: plasma exposure AUClast", "result": "9570 ± 1190", "unit": "ng·h/mL"},
      {"measurement": "concentration at 3 h", "setting": "[3]; male, Sprague-Dawley, rat, plasma, oral, 3 mg/kg, time point 3.0, individual rats, read-out: Plasma Conc.", "result": 910, "unit": "ng/mL"},
      {"measurement": "EC50", "setting": "human PPARα; Lot A, Non GMP, read-out: EC50 PPARα", "result": 488, "unit": "nM"},
      {"measurement": "EC50", "setting": "human PPARα; Lot B, GLP Nonclinical Studies, read-out: EC50 PPARα", "result": 750, "unit": "nM"},
      {"measurement": "EC50", "setting": "human PPARα; Lot C, cGMP material, read-out: EC50 PPARα", "result": 360, "unit": "nM"},
      {"measurement": "selectivity over the human PPAR alpha subtype", "setting": "human PPARα; PPARδ vs PPARα", "result": "~30", "unit": "fold"},
      {"measurement": "EC50", "setting": "human PPARα; average of three lots, read-out: Average EC50 PPARα", "result": 530, "unit": "nM"}
    ]}
  ]
}
